Tests used:
Axl+ Ba/F3 cells = molecular target: T1, Axl+ Ba/F3 cells (Homo sapiens, UniProt P30530); assay: Ba/F3 proliferation assay, Axl+; format: cell-based; conditions: Table 4; ± S.D., n = 3; 48 h Cell Titer Glo; read-out: IC50, Axl
T1 sequence (P30530 1-894): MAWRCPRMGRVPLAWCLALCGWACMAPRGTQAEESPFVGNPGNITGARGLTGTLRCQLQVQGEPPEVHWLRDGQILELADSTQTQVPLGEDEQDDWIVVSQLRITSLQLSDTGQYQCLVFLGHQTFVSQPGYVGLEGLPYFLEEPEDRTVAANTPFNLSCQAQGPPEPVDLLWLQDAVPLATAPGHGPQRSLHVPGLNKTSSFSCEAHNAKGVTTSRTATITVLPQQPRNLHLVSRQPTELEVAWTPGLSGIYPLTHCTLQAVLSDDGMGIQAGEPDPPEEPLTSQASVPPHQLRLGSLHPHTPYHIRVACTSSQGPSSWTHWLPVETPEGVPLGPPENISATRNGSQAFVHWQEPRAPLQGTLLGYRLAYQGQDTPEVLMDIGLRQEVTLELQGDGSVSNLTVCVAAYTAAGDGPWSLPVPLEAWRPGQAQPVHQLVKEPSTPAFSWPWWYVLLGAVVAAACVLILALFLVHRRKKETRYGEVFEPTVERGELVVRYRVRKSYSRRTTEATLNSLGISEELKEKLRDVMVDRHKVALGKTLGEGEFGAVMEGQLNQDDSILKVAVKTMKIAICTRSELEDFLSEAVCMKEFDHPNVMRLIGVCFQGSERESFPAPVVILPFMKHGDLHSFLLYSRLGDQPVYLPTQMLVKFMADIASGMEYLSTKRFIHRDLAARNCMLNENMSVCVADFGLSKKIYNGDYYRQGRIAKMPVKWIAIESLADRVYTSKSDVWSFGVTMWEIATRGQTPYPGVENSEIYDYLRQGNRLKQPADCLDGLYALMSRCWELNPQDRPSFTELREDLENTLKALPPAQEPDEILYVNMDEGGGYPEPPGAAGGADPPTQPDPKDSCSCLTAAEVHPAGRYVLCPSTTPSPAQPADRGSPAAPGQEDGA
Summary of the method: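 Ba/F3 cells transduced with Axl and selected for IL-3-independent growth. Cells combined with drug dilutions, and with IL-3 (10 ng/mL) or NRG (6.25 ng/mL) where needed, for 48 h at 37 °C. CellTiter-Glo read, normalized to DMSO, fitted with variable-slope log(inhibitor) regression.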

FGFR1 = FGFR1 (Homo sapiens, UniProt P11362); assay: Nanosyn in vitro kinase profiling: FGFR1; format: biochemical; conditions: for inhibition at 1 µM: compound at 1 μM
Chain of FGFR1 (P11362 22-822): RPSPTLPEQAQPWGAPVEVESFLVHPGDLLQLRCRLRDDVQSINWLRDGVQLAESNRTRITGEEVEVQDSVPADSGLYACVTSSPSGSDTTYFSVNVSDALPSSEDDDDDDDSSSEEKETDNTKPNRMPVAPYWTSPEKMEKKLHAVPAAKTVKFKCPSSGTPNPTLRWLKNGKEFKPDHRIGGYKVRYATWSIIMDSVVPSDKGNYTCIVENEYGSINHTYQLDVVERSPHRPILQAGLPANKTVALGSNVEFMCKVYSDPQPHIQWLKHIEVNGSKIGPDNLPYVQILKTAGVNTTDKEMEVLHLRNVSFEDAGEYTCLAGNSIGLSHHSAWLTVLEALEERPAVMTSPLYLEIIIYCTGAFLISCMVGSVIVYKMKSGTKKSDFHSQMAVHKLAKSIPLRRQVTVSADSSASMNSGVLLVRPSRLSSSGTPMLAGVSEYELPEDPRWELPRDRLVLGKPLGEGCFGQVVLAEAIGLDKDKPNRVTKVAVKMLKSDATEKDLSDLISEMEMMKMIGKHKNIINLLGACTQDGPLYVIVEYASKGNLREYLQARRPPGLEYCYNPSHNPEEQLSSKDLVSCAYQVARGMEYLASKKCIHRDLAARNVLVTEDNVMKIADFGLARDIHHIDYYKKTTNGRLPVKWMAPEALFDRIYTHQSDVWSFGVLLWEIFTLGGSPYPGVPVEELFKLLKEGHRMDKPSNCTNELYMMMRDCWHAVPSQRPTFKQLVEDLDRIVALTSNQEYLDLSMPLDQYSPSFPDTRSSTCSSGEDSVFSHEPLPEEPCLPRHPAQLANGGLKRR
Procedure: (§1) This was confirmed by in vitro profiling against a panel of kinases, with compound 2 only showing potent inhibition of EGFR and Ab1 (Table 2).
(§2) In vitro Kinome Screen. In vitro profiling of compound 2 at 100 nM was conducted by Nanosyn.

CSK = CSK (Homo sapiens, UniProt P41240); assay: Nanosyn in vitro kinase profiling: CSK; format: biochemical; conditions: for inhibition at 1 µM: compound at 1 μM
Chain of CSK (P41240 whole entry, species assumed): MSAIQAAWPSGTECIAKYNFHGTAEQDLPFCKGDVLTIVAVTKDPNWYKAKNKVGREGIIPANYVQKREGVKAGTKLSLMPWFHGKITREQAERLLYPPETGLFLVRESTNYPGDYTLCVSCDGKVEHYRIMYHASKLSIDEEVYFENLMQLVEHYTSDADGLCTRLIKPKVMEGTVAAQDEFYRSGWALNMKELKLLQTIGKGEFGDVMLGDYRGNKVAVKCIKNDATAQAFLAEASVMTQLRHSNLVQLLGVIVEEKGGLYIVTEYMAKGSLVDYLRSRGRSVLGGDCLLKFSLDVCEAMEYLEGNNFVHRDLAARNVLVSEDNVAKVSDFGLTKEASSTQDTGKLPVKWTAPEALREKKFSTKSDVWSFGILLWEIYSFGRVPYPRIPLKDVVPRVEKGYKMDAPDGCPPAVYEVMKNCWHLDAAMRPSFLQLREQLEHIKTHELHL
Procedure: as §1, §2

NEK2 = molecular target: T2, NEK2 (Homo sapiens, UniProt P51955); assay: Nanosyn in vitro kinase profiling: NEK2; format: biochemical; conditions: for inhibition at 1 µM: compound at 1 μM
T2 sequence (P51955 1-445): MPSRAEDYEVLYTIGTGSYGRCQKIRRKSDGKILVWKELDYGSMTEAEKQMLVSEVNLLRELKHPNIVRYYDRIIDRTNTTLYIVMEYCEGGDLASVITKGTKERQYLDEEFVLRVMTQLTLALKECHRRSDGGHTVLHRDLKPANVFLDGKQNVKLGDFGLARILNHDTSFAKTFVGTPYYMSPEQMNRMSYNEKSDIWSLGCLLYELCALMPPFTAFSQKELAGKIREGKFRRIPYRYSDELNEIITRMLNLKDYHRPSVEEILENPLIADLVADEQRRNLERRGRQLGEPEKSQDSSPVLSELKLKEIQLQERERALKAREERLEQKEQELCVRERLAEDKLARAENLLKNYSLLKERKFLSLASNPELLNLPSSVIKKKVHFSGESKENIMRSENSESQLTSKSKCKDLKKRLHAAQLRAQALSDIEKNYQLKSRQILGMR
Procedure: as §1, §2

CHEK1 = molecular target: T3, CHEK1 (Homo sapiens, UniProt O14757); assay: Nanosyn in vitro kinase profiling: CHEK1; format: biochemical; conditions: for inhibition at 1 µM: compound at 1 μM
T3 sequence (O14757 1-476): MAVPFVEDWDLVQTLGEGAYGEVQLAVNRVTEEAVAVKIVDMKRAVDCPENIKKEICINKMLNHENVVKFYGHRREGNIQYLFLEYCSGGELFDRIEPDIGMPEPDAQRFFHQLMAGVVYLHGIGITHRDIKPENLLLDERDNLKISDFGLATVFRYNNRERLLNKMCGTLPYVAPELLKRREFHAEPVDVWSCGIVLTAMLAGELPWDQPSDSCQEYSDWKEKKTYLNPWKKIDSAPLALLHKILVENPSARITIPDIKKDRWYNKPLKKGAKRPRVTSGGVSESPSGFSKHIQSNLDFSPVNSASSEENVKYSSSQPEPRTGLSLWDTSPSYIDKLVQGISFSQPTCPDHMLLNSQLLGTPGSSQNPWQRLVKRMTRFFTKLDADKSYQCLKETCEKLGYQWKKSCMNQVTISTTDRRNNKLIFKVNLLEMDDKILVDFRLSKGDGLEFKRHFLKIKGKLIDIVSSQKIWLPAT
Procedure: as §1, §2

SYK = SYK (Homo sapiens, UniProt P43405); assay: Nanosyn in vitro kinase profiling: SYK; format: biochemical; conditions: for inhibition at 1 µM: compound at 1 μM
Procedure: as §1, §2

Structure (SMILES)	GI50 (Axl+ Ba/F3 cells) [nM]	inhibition at 1 µM (FGFR1) [%]	inhibition at 1 µM (CSK) [%]	inhibition at 1 µM (NEK2) [%]	inhibition at 1 µM (CHEK1) [%]	inhibition at 1 µM (SYK) [%]	inhibition at 0.1 µM (FGFR1; compound at 100 nM) [%]	inhibition at 0.1 µM (CSK; compound at 100 nM) [%]	inhibition at 0.1 µM (NEK2; compound at 100 nM) [%]	inhibition at 0.1 µM (CHEK1; compound at 100 nM) [%]	inhibition at 0.1 µM (SYK; compound at 100 nM) [%]
CS(=O)(=O)CCNCc1ccc(-c2ccc3ncnc(Nc4ccc(OCc5cccc(F)c5)c(Cl)c4)c3c2)o1 [lapatinib]	> 3330										
COc1ccc(-c2ccoc2)cc1Nc1ncnc2[nH]cc(-c3cc[nH]n3)c12 [compound 3, N-(5-(furan-3-yl)-2-methoxyphenyl)-5-(1H-pyrazol-3-yl)-7H-pyrrolo[2,3-d]pyrimidin-4-amine]	1170 ± 106	93	62	-9	10	35					
COc1ccc(-c2ccco2)cc1Nc1ncnc2[nH]nc(-c3ccco3)c12 [compound 2, 3-(furan-2-yl)-N-(5-(furan-2-yl)-2-methoxyphenyl)-1H-pyrazolo[3,4-d]pyrimidin-4-amine]		86.3	24.8	2.98	2.27	-6.41	48.3	6.96	1.53	0.965	-2.12
